According to ChEMBL document CHEMBL1201862, “PubChem BioAssay data set” (2004):
Blank lines part the entries; values can stand above or below the molecule they belong to. Activity calls are given as the source filed them.

How the values were obtained:
[1] = viability loss in HepG2 liver cells – cell-based, ATP luminescence, cherry-pick, set 6, cytotoxicity control, dose response (AID 1053125); type: functional
[2] = molecular target: T1, Caspase-6 (Homo sapiens, UniProt P55212); assay: inhibition of CASP6 peptide cleavage – biochemical, VEID-R110 fluorescence, cherry-pick, dose response (AID 720632)
T1 sequence (P55212 whole entry): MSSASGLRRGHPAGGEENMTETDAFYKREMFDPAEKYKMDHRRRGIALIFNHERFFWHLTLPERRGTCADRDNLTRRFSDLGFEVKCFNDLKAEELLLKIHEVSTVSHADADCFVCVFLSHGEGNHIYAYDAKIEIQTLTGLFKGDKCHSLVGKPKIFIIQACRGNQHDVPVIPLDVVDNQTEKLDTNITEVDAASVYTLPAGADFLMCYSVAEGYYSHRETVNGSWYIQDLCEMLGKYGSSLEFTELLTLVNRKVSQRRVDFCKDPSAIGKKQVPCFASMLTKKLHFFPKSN

[3] = molecular target: T2, Histone-lysine N-methyltransferase NSD2 (Homo sapiens, UniProt O96028); type: biochemical
T2 sequence (O96028 whole entry): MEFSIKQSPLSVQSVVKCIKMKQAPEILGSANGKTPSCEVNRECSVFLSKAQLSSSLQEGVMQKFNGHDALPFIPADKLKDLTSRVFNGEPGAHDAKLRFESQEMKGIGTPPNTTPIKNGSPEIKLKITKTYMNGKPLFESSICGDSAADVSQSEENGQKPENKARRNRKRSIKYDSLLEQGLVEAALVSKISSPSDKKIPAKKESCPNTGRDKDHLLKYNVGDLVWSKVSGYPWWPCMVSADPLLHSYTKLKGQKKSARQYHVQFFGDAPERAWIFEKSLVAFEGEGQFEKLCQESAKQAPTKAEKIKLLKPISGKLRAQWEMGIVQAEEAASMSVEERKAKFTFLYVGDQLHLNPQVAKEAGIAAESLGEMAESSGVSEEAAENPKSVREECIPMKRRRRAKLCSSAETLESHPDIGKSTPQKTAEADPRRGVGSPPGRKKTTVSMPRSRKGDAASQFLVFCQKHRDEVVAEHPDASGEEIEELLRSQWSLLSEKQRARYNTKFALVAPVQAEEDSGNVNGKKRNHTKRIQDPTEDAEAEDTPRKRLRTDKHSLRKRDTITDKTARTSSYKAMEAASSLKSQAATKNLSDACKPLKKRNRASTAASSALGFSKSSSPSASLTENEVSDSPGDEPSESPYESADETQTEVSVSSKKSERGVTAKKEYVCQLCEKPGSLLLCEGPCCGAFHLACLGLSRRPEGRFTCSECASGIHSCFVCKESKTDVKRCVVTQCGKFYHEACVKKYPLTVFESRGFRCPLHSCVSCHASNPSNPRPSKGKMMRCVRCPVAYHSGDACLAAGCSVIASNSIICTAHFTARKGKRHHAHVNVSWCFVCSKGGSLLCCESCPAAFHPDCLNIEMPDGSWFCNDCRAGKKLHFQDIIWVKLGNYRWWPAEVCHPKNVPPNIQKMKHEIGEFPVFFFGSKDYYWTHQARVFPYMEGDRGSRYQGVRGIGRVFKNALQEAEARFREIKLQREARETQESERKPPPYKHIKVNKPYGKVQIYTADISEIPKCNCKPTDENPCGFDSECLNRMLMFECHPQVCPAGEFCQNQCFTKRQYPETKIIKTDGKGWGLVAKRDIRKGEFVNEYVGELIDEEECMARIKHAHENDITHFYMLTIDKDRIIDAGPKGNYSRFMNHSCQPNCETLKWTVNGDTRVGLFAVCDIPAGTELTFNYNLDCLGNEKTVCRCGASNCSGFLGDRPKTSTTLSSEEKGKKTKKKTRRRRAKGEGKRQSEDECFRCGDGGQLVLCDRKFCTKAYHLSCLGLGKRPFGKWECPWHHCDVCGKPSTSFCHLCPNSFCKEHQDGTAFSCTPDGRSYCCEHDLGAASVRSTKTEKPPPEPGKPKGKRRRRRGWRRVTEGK

[4] = molecular target: T3, Alkaline phosphatase, tissue-nonspecific isozyme (Homo sapiens, UniProt P05186); assay: TNAP enzyme inhibition by screening hits, dose response, selectivity assay for mouse IAP inhibitor project, biochemical, human TNAP, uHTS hits (AID 488906); type: functional
T3 sequence (P05186 whole entry): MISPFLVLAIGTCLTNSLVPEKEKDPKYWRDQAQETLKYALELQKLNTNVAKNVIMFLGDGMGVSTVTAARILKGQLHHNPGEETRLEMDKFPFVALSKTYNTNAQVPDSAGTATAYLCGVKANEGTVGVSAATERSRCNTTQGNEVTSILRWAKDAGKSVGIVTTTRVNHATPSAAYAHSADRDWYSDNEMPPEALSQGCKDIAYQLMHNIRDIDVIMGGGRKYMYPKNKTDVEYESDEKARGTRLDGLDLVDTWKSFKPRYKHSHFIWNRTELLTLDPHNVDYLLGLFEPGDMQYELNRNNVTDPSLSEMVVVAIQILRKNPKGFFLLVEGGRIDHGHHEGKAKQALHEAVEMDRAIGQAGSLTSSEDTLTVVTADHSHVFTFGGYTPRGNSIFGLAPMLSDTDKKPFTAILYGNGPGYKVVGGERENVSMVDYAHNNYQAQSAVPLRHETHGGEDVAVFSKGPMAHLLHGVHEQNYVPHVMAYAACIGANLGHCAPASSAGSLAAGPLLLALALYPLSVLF

[5] = molecular target: T4, Intestinal-type alkaline phosphatase (Homo sapiens, UniProt P09923); assay: inhibition of human intestinal alkaline phosphatase – biochemical, dose response (AID 488876); type: functional
T4 sequence (P09923 whole entry): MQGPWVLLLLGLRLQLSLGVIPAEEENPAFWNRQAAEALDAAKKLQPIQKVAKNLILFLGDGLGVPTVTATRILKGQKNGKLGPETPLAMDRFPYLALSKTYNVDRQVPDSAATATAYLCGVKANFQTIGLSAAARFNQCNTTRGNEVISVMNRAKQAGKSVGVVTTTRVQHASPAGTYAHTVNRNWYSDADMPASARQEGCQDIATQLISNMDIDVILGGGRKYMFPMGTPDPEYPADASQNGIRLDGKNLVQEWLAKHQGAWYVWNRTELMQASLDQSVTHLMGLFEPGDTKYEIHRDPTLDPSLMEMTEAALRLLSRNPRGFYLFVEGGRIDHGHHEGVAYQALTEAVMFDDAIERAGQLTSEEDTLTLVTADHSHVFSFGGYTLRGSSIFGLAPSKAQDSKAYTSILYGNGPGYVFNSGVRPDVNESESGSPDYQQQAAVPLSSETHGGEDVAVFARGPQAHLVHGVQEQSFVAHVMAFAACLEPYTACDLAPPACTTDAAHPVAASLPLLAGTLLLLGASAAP

[6] = molecular target: T5, Rac GTPase-activating protein 1 (Homo sapiens, UniProt Q9H0H5); assay: blockers of MgcRacGAP-driven Rac1 GTP hydrolysis – biochemical, ADP Hunter fluorescence, primary and confirmatory, confirmation (AID 624330); type: functional
T5 sequence (Q9H0H5 whole entry): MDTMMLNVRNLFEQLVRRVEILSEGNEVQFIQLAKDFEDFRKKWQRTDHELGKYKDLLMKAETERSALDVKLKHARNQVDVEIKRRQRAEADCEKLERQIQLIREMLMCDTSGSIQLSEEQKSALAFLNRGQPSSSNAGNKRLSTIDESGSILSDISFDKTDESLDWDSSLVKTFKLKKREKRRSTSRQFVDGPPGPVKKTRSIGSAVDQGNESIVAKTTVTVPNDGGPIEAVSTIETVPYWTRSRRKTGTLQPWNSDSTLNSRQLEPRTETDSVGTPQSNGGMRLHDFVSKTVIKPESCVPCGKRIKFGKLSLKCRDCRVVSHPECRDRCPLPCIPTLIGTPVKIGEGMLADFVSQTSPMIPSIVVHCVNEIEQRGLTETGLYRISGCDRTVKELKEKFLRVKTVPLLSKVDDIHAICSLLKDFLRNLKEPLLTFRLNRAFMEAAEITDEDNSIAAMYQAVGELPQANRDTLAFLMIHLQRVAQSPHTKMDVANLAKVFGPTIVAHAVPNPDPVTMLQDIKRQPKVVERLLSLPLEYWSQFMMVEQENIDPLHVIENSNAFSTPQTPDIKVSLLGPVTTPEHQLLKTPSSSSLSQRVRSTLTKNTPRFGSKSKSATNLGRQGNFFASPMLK

[7] = molecular target: Intestinal-type alkaline phosphatase (Mus musculus, UniProt P24822); assay: PubChem AID 488785; type: functional
Chain of Intestinal-type alkaline phosphatase (Mus musculus, UniProt P24822) (P24822 whole entry): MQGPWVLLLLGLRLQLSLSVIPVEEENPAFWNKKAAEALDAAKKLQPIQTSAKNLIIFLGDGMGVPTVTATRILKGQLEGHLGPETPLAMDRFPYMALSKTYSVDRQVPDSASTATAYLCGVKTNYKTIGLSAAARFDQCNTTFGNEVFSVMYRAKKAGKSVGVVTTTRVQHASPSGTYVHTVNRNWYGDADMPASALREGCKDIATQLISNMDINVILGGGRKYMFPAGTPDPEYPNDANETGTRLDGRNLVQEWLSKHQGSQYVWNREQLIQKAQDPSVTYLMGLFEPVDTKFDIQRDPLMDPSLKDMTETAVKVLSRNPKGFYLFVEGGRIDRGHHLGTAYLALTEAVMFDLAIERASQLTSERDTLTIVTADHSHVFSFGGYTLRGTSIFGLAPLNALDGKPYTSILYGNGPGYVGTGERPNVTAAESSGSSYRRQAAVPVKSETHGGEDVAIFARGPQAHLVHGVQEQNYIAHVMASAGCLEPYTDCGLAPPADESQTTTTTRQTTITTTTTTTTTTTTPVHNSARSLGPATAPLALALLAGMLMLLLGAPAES

[8] = molecular target: Caspase-7 (Homo sapiens, UniProt P55210); assay: caspase-7 enzyme inhibition, selectivity check – biochemical, DEVD-R110 fluorescence, cherry-pick, selectivity assay for caspase-6 inhibitor project, dose response (AID 743295); type: functional
Chain of Caspase-7 (P55210 24-198 limits assumed): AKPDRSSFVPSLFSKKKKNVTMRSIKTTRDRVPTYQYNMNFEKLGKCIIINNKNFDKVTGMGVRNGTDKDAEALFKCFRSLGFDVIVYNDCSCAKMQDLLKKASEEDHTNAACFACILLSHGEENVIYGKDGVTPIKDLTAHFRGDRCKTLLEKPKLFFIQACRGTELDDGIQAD
Chain of Caspase-7 (P55210 207-303 limits assumed): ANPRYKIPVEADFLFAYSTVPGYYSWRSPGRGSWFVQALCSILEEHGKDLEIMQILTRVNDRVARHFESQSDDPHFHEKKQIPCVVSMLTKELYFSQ

[9] = molecular target: T6, Small ubiquitin-related modifier 2 (Homo sapiens, UniProt P61956); assay: disruption of SUMO2 interaction with SIM peptide – biochemical, fluorescence polarization, uHTS hits, selectivity assay for SUMO1 interaction inhibitor project, dose response (AID 624385); type: functional; settings: read-out: IC50_Mean
T6 sequence (P61956 whole entry): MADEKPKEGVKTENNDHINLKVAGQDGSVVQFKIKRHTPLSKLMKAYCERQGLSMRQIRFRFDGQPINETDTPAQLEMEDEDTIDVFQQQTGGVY

[10] = molecular target: T7, Small ubiquitin-related modifier 1 (Homo sapiens, UniProt P63165); assay: SUMO1 protein interaction blockers, potency – biochemical, fluorescence polarization, uHTS hits, dose response (AID 624382); type: functional; settings: read-out: IC50_Mean
T7 sequence (P63165 whole entry): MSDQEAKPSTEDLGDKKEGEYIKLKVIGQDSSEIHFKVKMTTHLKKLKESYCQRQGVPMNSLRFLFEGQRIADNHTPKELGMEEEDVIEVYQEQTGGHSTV

[11] = molecular target: Caspase-8 (Homo sapiens, UniProt Q14790); assay: inhibitors of purified CASP8 protease – biochemical, Z-IETD-R110 fluorescence, cherry-picked samples, selectivity assay for caspase-6 inhibitor project, dose response (AID 743294)
Chain of Caspase-8 (Q14790 217-374 limits assumed): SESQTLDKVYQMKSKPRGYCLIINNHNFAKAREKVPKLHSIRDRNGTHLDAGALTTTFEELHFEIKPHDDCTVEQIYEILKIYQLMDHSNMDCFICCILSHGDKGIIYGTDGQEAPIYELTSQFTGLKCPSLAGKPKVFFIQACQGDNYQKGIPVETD
Chain of Caspase-8 (Q14790 385-479 limits assumed): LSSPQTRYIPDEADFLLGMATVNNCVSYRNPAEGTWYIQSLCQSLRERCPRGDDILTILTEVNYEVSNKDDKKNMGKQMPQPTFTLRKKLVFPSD

[12] = molecular target: T6, Small ubiquitin-related modifier 2; assay: SUMO2 binding disruption by SUMO1 hits – biochemical, FRET, human SUMO2, uHTS hits, selectivity assay for SUMO1 interaction inhibitor project, dose response (AID 624384); type: functional; settings: read-out: IC50_Mean
[13] = molecular target: T7, Small ubiquitin-related modifier 1; assay: SUMO1 protein-protein binding blockers, potency – biochemical, FRET, dose response (AID 624383); type: functional; settings: read-out: IC50_Mean
[14] = molecular target: Induced myeloid leukemia cell differentiation protein Mcl-1 (Homo sapiens, UniProt Q07820); type: functional
Chain of Induced myeloid leukemia cell differentiation protein Mcl-1 (Q07820 whole entry): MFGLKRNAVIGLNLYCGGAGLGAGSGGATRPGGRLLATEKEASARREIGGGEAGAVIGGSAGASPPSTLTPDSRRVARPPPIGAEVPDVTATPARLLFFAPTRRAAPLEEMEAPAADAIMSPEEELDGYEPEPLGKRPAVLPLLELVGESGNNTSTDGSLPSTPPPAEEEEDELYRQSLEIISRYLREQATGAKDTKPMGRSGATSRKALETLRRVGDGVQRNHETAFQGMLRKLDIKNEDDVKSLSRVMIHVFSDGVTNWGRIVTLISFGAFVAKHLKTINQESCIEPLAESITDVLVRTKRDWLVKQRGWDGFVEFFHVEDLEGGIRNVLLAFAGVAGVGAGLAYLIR

[15] = molecular target: Eukaryotic translation initiation factor 4E (Mus musculus, UniProt P63073); assay: blockers of eIF4G binding by eIF4E – biochemical, TR-FRET, dose response (AID 855); type: functional;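 further: potency for disrupting eIF4E binding to eIF4GI seen as loss of FRET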
[16] = molecular target: Disintegrin and metalloproteinase domain-containing protein 17 (Homo sapiens, UniProt P78536); assay: inhibition of ADAM17 substrate cleavage – biochemical, quenched FRET substrate, counter-screen for ADAM10 exosite inhibitor project, dose response (AID 743253)
[17] = potency of ADAM10 substrate cleavage blockers – biochemical, QFRET, dose response (AID 743254);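 further: ADAM10 enzyme with the DM2 quenched FRET peptide as substrate; EDANS fluorescence gain as the protease cuts the substrate; inhibitor potency against ADAM10 proteolytic activity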
[18] = molecular target: NAD-dependent protein deacylase sirtuin-5, mitochondrial (Homo sapiens, UniProt Q9NXA8); assay: sirtuin-5 deacylation blockers, concentration series – biochemical, fluorescence imaging, cherry-pick, set 5, dose response (AID 720591);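 further: desuccinylation of succinyl peptide AMC substrate read as fluorescence after trypsin release; potency of inhibitors that lower fluorescence and may act on trypsin instead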
Chain of NAD-dependent protein deacylase sirtuin-5, mitochondrial (Q9NXA8 whole entry): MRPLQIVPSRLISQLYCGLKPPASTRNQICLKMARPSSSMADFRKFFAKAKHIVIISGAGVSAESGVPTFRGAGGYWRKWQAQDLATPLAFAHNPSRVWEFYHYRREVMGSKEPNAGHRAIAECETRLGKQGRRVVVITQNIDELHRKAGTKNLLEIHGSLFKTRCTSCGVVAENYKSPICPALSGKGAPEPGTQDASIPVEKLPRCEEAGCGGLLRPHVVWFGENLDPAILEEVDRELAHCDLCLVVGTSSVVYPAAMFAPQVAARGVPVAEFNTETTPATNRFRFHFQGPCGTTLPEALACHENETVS

[19] = cells; settings: HEK293
[20] = molecular target: COUP transcription factor 2 (Homo sapiens, UniProt P24468); assay: Luminescence-based cell-based high throughput dose response assay to identify inhibitors of COUP-TFII (NR2F2).; type: functional;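 further: HEK293 cells transiently cotransfected with COUP-TFII expression vector and reporter; luciferase reporter luminescence driven by COUP-TFII from the pX2-168 reporter plasmid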
Chain of COUP transcription factor 2 (P24468 whole entry): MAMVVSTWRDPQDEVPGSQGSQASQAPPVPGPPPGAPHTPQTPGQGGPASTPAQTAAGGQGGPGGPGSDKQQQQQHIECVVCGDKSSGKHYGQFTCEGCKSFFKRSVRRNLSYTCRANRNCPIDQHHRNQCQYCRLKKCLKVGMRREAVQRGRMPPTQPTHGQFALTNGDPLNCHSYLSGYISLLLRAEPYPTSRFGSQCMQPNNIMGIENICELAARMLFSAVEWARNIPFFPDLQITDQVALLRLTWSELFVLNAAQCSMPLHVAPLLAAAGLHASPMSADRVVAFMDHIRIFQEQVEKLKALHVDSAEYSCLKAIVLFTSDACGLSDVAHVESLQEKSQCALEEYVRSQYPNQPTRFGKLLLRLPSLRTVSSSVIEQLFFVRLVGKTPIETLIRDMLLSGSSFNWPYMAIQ

[21] = molecular target: T8, DNA repair protein RAD52 homolog (Homo sapiens, UniProt P43351); type: functional, biochemical
T8 sequence (P43351 whole entry): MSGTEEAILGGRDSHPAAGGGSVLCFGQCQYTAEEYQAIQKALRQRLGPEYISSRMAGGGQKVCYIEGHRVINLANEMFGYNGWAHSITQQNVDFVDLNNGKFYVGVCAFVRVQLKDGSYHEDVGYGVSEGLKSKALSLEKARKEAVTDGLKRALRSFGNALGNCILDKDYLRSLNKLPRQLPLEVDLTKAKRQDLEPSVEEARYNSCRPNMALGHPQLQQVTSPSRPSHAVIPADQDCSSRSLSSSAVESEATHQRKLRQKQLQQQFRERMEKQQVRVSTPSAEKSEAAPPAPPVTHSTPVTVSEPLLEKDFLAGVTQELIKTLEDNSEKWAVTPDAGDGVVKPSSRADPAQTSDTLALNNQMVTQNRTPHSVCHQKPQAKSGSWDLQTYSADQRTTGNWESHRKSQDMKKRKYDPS

[22] = molecular target: T9, Caspase-3 (Homo sapiens, UniProt P42574); assay: human caspase-3 protease activity blockade – biochemical, fluorescence, cherry-picked samples, selectivity assay for caspase-6 allosteric inhibitor project, dose response (AID 743291)
T9 sequence (P42574 whole entry): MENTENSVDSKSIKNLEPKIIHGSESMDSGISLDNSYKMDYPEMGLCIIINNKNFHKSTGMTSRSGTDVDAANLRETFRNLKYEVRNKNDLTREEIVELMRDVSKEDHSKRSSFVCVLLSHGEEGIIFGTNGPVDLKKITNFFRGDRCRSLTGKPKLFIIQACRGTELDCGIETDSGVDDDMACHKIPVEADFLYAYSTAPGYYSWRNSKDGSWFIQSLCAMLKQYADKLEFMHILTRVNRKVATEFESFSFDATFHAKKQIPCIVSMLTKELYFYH

[23] = molecular target: T4, Intestinal-type alkaline phosphatase; assay: activation of human intestinal alkaline phosphatase – biochemical, dose response (AID 488873); type: functional
[24] = molecular target: Large T antigen (Simian virus 40, UniProt P03070); type: functional, Betapolyomavirus macacae;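 further: Confirmatory-stage PubChem screen for compounds that inhibit SV40 T antigen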
[25] = molecular target: Ras and Rab interactor 1/Tyrosine-protein kinase ABL1 (Homo sapiens, UniProt P00519+Q13671); type: functional;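 further: biochemical TR-FRET dose-response test measuring inhibition of binding between Rin1 and Abl proteins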
Chain of Ras and Rab interactor 1/Tyrosine-protein kinase ABL1 (P00519 whole entry): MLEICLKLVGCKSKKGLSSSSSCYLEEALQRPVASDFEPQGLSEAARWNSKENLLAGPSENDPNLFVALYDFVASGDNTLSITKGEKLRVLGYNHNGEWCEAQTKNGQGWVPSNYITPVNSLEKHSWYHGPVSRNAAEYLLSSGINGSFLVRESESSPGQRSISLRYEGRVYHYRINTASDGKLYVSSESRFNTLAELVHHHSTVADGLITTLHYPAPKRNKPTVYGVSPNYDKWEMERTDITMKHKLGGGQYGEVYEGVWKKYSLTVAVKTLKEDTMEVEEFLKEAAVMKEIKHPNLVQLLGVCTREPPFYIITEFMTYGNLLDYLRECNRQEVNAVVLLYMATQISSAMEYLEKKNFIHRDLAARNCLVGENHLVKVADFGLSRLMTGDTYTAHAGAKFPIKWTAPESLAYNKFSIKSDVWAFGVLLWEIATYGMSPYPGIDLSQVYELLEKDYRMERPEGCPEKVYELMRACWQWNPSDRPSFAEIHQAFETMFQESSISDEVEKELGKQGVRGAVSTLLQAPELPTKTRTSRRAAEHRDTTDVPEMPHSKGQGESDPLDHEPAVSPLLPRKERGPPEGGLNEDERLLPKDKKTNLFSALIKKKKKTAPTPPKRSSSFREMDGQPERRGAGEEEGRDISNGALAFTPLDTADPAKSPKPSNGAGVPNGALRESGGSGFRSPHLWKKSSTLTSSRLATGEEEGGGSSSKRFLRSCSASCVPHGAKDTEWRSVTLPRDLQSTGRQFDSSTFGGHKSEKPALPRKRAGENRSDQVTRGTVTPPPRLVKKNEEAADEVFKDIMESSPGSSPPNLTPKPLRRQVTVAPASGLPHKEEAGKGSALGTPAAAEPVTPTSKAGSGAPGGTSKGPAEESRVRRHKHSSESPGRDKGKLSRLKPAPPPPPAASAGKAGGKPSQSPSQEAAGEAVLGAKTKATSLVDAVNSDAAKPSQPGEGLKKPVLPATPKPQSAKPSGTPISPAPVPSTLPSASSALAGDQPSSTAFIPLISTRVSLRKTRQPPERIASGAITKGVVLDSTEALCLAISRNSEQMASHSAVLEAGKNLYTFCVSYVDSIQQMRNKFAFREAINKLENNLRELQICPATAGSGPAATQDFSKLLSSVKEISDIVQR
Chain of Ras and Rab interactor 1/Tyrosine-protein kinase ABL1 (Q13671 whole entry): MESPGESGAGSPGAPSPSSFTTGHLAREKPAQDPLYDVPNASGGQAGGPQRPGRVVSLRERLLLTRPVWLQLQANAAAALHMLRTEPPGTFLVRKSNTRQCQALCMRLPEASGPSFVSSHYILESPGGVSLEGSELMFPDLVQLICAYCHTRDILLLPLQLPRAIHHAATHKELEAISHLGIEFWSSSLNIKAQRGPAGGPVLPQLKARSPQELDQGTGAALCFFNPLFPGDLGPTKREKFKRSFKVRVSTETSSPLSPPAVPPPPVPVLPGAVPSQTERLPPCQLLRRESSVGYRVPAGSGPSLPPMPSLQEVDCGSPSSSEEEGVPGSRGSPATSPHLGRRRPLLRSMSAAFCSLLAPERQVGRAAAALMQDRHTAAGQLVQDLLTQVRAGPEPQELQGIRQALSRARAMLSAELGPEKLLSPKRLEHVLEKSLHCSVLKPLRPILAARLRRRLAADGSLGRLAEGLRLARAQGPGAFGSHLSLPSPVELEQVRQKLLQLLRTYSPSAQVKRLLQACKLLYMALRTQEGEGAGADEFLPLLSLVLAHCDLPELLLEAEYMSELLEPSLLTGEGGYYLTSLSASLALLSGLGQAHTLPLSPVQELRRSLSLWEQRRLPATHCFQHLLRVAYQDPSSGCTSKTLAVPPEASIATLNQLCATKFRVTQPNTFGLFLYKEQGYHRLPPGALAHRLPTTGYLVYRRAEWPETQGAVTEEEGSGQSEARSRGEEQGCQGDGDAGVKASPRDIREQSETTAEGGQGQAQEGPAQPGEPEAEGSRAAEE

SMILES: CCOC(=O)c1cc2c(=O)n3ccccc3nc2n(C(C)C)/c1=N/C(=O)c1ccco1
AC50 [1]: > 52 µM (inactive)

SMILES: O=C(COC(=O)c1ccccc1)Nc1ncc([N+](=O)[O-])s1
AC50 [2]: 0.951 µM (active)
AC50 [3]: 2.74 µM (active)
IC50 [4]: 1.06 µM (active)
IC50 [5]: 80.6 µM (active)
IC50 [6]: 50.2 µM (active)
IC50 [7]: < 0.195 µM (active)
AC50 [8]: 16.3 µM (active)
IC50 [9]: 14.7 µM (active)
IC50 [10]: 9.39 µM (active)
AC50 [11]: 61.3 µM (active)
IC50 [12]: > 66 µM (inactive)
IC50 [13]: 51.7 µM (inactive)

IC50 [14]: 4.76 µM (not active)
IC50 [15]: 50 µM (inactive)
IC50 [16]: 20 µM (inactive)
IC50 [17]: 4.72 µM (active)
SMILES: Oc1cc2c(cc1C(c1ccc(Cl)c(Cl)c1)N1CCCC1)OCO2 (stereo not given)

AC50 [18]: > 30 µM (inactive)
SMILES: O=C(Cn1nc(-c2ccc(Cl)cc2)ccc1=O)NCC1COCCO1 (stereo not given)

SMILES: C1CCNCC1.N#CC1=C(N)Oc2cc(O)ccc2C1c1ccc2c(c1)OCO2 (stereo not given)
AC50 [19]: > 52 µM (inactive)

IC50 [20]: 5.24 µM (active)
AC50 [21]: 1.07 µM (active)
SMILES: NC(S)=NN=C1c2cc(OCCN3CCOCC3)ccc2-c2ccc(OCCN3CCOCC3)cc21

AC50 [22]: 31.7 µM (active)
IC50 [14]: 5.16 µM (active)
AC50 [2]: 1.32 µM (active)
IC50 [4]: > 100 µM (inactive)
EC50 [23]: 11.3 µM (active)
IC50 [24]: 28.8 µM (active)
IC50 [7]: > 100 µM (inactive)
AC50 [8]: 9.65 µM (active)
IC50 [25]: 11.9 µM (inactive)
SMILES: O=C(CCO)c1ccc(O)cc1
